The numbers were not newly measured in patent US10016482B2, “Insulin independence among patients with diabetes utilizing an optimized hamster REG3 gamma peptide” (priority 2014, dated 2018), which cites them from elsewhere.

Where two headings read alike, the source gives them in different places. No end group written: not given here.

Data set [1] relates to patients with type 1 diabetes. Particulars: for study subjects / patients dropping out of the clinical trials due to local side-effects: man, local injection site reactions (pain, bruising, infection, skin site reactions).
Data set [2] concerns human extra-islet pancreatic exocrine tissue. Particulars: in vitro; exocrine ductal tissue separated from endocrine beta cells.
Data set [3] relates to new small islets developing from non-endocrine tissue.

Regarding “IGLHDPSHGTLPNGS [hamster Reg3 gamma peptide, native 15 amino acid hamster Reg3 gamma peptide]”, in data set [1] (by day 54, type 1 patients with no baseline c-peptide), the “increase in endogenous insulin production” value is on record as 27%. The “study subjects / patients dropping out of the clinical trials due to local side-effects” value in data set [1] (listed as 15-amino acid hamster Reg3 gamma peptide) is reported as “⅓”; in data set [1] (listed as 15 amino acid hamster Reg3gamma peptide) it was “more than ⅓”; in data set [1] (listed as hamster Reg3 gamma 15 amino acid peptide), “⅓”. Also, the “rise in stimulated c-peptide” value in data set [1] (type 1 patients with no detectable c-peptide at baseline) is reported as 27%. In addition, the insulin requirements entry in data set [1] (type 1 patients, within 54 days of usage) is given as “significant reduction”. Further, in data set [2], the “transformation of exocrine ductal tissue” value was “transform into new beta cells”. Besides, the “levels of new islet markers (NGN3, NKX6.1, SOX9, INS)” value in data set [3] (five days after treatment) was “increased levels”. Further, the “increase in the volume of new small islets” value in data set [3] (islets developing from non-endocrine tissue) is listed as 2 fold.
